Laboratory results as given in patent publication US7332504B2, “Heterocyclic substituted aminoazacycles useful as central nervous system agents” (Abbott Laboratories, priority 1999, dated 2008).
Where a name gives a salt, the structure may show the parent alone.

Tests used:
[1] = target: T1, neuronal nicotinic acetylcholine receptors (Rattus norvegicus, UniProt P09483+P12390); assay: Binding of [3H]-cytisine to neuronal nicotinic acetylcholine receptors, crude synaptic membranes from whole rat brain
T1 construct: crude synaptic membrane preparations from whole rat brain; from tissue; host or cells: whole rat brain, crude synaptic membranes
T1 sequence (P09483 31-630): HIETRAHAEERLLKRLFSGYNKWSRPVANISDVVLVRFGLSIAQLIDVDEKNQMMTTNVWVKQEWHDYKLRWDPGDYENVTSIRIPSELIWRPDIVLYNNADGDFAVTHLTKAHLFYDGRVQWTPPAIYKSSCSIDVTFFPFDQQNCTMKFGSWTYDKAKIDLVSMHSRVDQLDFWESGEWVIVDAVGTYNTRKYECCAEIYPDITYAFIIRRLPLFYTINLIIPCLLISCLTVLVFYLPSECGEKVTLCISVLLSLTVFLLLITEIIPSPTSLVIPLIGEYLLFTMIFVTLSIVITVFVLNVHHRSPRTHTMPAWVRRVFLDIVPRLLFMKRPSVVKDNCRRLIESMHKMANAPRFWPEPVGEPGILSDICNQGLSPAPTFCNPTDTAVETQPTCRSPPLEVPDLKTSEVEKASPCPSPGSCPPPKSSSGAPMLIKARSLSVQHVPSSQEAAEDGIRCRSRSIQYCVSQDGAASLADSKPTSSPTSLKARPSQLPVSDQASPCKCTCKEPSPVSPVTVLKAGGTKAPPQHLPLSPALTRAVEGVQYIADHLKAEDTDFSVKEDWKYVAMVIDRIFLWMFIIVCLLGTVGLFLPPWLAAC
T1 sequence (P12390 25-500): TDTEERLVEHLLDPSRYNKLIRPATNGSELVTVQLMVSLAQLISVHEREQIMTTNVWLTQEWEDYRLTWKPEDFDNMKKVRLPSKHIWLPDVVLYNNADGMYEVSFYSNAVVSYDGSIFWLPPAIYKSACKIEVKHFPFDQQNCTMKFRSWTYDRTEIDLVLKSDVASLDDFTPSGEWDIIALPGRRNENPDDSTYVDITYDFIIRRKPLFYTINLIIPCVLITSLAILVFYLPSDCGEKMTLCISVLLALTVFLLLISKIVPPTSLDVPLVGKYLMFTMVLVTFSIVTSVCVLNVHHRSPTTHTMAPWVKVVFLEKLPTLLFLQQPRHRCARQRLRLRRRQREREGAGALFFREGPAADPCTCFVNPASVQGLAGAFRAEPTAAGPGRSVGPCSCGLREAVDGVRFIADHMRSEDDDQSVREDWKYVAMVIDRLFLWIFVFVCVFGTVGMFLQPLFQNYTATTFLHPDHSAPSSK
Method: The In Vitro protocols for determination of nicotinic acetylcholine channel receptor binding potencies of ligands were determined as follows.
Binding of [^3H]-cytisine ([^3 H]-CYT) to neuronal nicotinic acetylcholine receptors was accomplished using crude synaptic membrane preparations from whole rat brain (Pabreza et al., Molecular Pharmacol., 1990, 39:9). Washed membranes were stored at —80° C. prior to use. Frozen aliquots were slowly thawed and resuspended in 20 volumes of buffer (containing: 120 mM NaCl, 5 mM KCl, 2 mM MgCl2, 2 mM CaCl2 and 50 mM Tris-Cl, pH 7.4 @4° C.). After centrifuging at 20,000×g for 15 minutes, the pellets were resuspended in 30 volumes of buffer.
The test compounds were dissolved in water to make 10 mM stock solutions. Each solution was then diluted (1:100) with buffer (as above) and further taken through seven serial log dilutions of produce test solution from 10^−5 to 10^−11 M.
Homogenate (containing 125-150 μg protein) was added to triplicate tubes containing the range of concentrations of test compound described above and [^3H]-CYT (1.25 nM) in a final volume of 500 μL. Samples were incubated for 60 minutes at 4° C., then rapidly filtered through Whatman GF/B filters presoaked in 0.5% polyethyleneimine using 3×4 mL of ice-cold buffer. The filter are counted in 4 mL of Ecolume® (ICN). Nonspecific binding was determined in the presence of 10 μM (−)-nicotine and values were expressed as a percentage of total binding. IC50 values were determined with the RS-1 (BBN) nonlinear least squares curve-fitting program and IC50 values were converted to Ki values using the Cheng and Prusoff correction ([…].

mouse hot plate paradigm = assay: Mouse hot plate paradigm (analgesia); type: in vivo; settings: ip, 0.5 h, mice, intraperitoneal, dosed 30 minutes prior to testing, hot plate 55° C., increase in tenth jump latency relative to control, read-out: minimally effective dose (MED)
Method: An in vivo protocol was utilized to determine the effectiveness of nicotinic acetylcholine receptor ligands as analgesic agents in the mouse hot plate paradigm.
Separate groups of mice, (n=8/group) were utilized for each dose group. All drugs were administered by the intraperitoneal route of administration. Test drugs were dissolved in water to make a 6.2 mM stock solution. Animals were dosed with this solution (10 mL/kg body weight) for a 62 micromol/kg dose. Lower doses were administered similarly, following serial dilution of the stock solution in half-log increments. Animals were dosed 30 minutes prior to testing in the hot plate. The hot-plate utilized was an automated analgesia monitor (Model #AHP16AN, Omnitech Electronics, Inc. of Columbus, Ohio). The temperature of the hot plate was maintained at 55° C. and a cut-off time of 180 seconds was utilized. Latency until the tenth jump was recoreded as the dependent measure. An increase in the tenth jump latency relative to the control was considered an effect.

Compound `CN(C)[C@H]1CCN(c2ccc(Cl)nc2)C1` (as salt: benzenesulfonate) [Example 3, N-[(3S)-1-(6-chloro-3-pyridinyl)pyrrolidinyl]-N,N-dimethylamine 4-methylbenzenesulfonate] has a melting point of 190 to 191.5 °C.
`Cc1cc(N2CC[C@@H](N)C2)cnc1Cl` [Example 15, (3R)-1-(6-chloro-5-methyl-3-pyridinyl)pyrrolidinylamine hydrochloride] showed a Ki [1] of 0.03 nM and a minimal effective dose (mouse hot plate paradigm) of 6.2 µmol/kg.
In the case of `CN[C@@H]1CCN(c2ccc(Cl)nc2)C1` (as salt: hydrochloride) [Example 5, N-[(3R)-1-(6-chloro-3-pyridinyl)pyrrolidinyl]-N-methylamine hydrochloride], the melting point is reported as 265 °C (dec.).
In the case of `N[C@@H]1CCN(c2cncc([N+](=O)[O-])c2)C1` [Example 31, (3R)-1-(5-nitro-3-pyridinyl)pyrrolidinylamine fumarate], the Ki [1] is reported as 3.5 nM and the minimal effective dose (mouse hot plate paradigm) is reported as 6.2 µmol/kg.
With `CN[C@H]1CCN(c2cncc([N+](=O)[O-])c2)C1` (as salt: fumarate) [Example 30, N-methyl-N-[(3S)-1-(5-nitro-3-pyridinyl)pyrrolidinyl]amine fumarate] the melting point was 183 to 185 °C.
With `CN[C@H]1CCN(c2cnc(Cl)c(OC)c2)C1` [Example 24, N-[(3S)-1-(6-chloro-5-methoxy-3-pyridinyl)pyrrolidinyl]-N-methylamine dihydrochloride] the Ki [1] was 4.1 nM and the minimal effective dose (mouse hot plate paradigm) was 62 µmol/kg.
In the case of `CN[C@H]1CCCN(c2ccc(Cl)nc2)C1` [Example 46, N-[(3S)-1-(6-chloro-3-pyridinyl)piperidin-3-yl]-N-methylamine dihydrochloride], the Ki [1] is reported as 60 nM and the minimal effective dose (mouse hot plate paradigm) is reported as 62 µmol/kg.
Compound `N[C@@H]1CCN(c2ccc(Cl)nc2)C1` (as salt: benzenesulfonate) [Example 4, (3R)-1-(6-chloro-3-pyridinyl)pyrrolidinylamine 4-methylbenzenesulfonate] has a melting point of 224.5 to 225.5 °C.
Compound `N[C@@H]1CCN(c2ccc(Cl)nc2)C1` [Example 4, (3R)-1-(6-chloro-3-pyridinyl)pyrrolidinylamine 4-methylbenzenesulfonate] has a Ki [1] of 0.22 nM and a minimal effective dose (mouse hot plate paradigm) of 1.9 µmol/kg.
`N[C@@H]1CCN(c2cncc([N+](=O)[O-])c2)C1` (as salt: fumarate) [Example 31, (3R)-1-(5-nitro-3-pyridinyl)pyrrolidinylamine fumarate] gave a melting point of 212 to 213 °C.
Compound `CN[C@H]1CCN(c2cnc(Cl)c(Cl)c2)C1` [Example 20, N-[(3S)-1-(5,6-dichloro-3-pyridinyl)pyrrolidinyl]-N-methylamine hydrochloride] has a Ki [1] of 0.59 nM and a minimal effective dose (mouse hot plate paradigm) of 19 µmol/kg.
Work on `N[C@H]1CCCN(c2ccc(Cl)nc2)C1` [Example 45, (3S)-1-(6-chloro-3-pyridinyl)piperidinylamine bis(4-methylbenzenesulfonate)] yielded a Ki [1] of 0.35 nM and a minimal effective dose (mouse hot plate paradigm) of 0.62 µmol/kg.
Work on `NC1CCN(c2ccc(Cl)nc2)C1` (stereo not drawn) [Example 7, 1-(6-chloro-3-pyridinyl)-3-pyrrolidinylamine 4-methylbenzenesulfonate] yielded a Ki [1] of 0.12 nM and a minimal effective dose (mouse hot plate paradigm) of 6.2 µmol/kg.
In the case of `CN[C@H]1CCN(c2cncc(C(F)(F)F)c2)C1` (as salt: hydrochloride) [Example 14, N-methyl-N-{(3S)-1-[5-(trifluoromethyl)-3-pyridinyl]pyrrolidinyl}amine hydrochloride], the melting point is reported as 240 to 243 °C (dec.).
In the case of `COc1cc(N2CC[C@H](N)C2)cnc1Cl` [Example 23, (3S)-1-(6-chloro-5-methoxy-3-pyridinyl)pyrrolidinylamine dihydrochloride], the Ki [1] is reported as 0.13 nM and the minimal effective dose (mouse hot plate paradigm) is reported as 62 µmol/kg.
With `N[C@H]1CCN(c2cnc(Cl)c(Cl)c2)C1` [Example 19, (3S)-1-(5,6-dichloro-3-pyridinyl)pyrrolidinylamine dihydrochloride] the Ki [1] was 0.05 nM and the minimal effective dose (mouse hot plate paradigm) was 6.2 µmol/kg.
`CN[C@H]1CCN(c2cnc(Cl)c(C)c2)C1` [Example 18, N-[(3S)-1-(6-chloro-5-methyl-3-pyridinyl)pyrrolidinyl]-N-methylamine dihydrochloride] showed a Ki [1] of 0.58 nM and a minimal effective dose (mouse hot plate paradigm) of 6.2 µmol/kg.
`NC1CCCN(c2ccc(Cl)nc2)C1` (stereo not drawn) [Example 38, 1-(6-chloro-3-pyridinyl)-3-piperidinylamine 4-methylbenzenesulfonate] showed a Ki [1] of 0.51 nM and a minimal effective dose (mouse hot plate paradigm) of 6.2 µmol/kg.
In the case of `Cc1cc(N2CC[C@H](N)C2)cnc1F` [Example 25, (3S)-1-(6-fluoro-5-methyl-3-pyridinyl)pyrrolidinylamine hydrochloride], the Ki [1] is reported as 0.34 nM and the minimal effective dose (mouse hot plate paradigm) is reported as 6.2 µmol/kg.
In the case of `CN(C)[C@H]1CCN(c2ccc(Cl)nc2)C1` [Example 3, N-[(3S)-1-(6-chloro-3-pyridinyl)pyrrolidinyl]-N,N-dimethylamine 4-methylbenzenesulfonate], the Ki [1] is reported as 61 nM and the minimal effective dose (mouse hot plate paradigm) is reported as 62 µmol/kg.
`N[C@H]1CCN(c2cncc(C(F)(F)F)c2)C1` (as salt: hydrochloride) [Example 13, (3S)-1-[5-(trifluoromethyl)-3-pyridinyl]pyrrolidinylamine dihydrochloride] showed a melting point of 235 to 236 °C.
`N[C@H]1CCN(c2ccc(Cl)nc2)C1` [Example 2, (3S)-1-(6-chloro-3-pyridinyl)pyrrolidinylamine dihydrochloride] showed a Ki [1] of 0.1 nM and a minimal effective dose (mouse hot plate paradigm) of 6.2 µmol/kg.
`N[C@H]1CCN(c2cncc([N+](=O)[O-])c2)C1` [Example 29, (3S)-1-(5-nitro-3-pyridinyl)pyrrolidinylamine fumarate] showed a Ki [1] of 0.7 nM and a minimal effective dose (mouse hot plate paradigm) of 19 µmol/kg.
Compound `Cc1cc(N2CC[C@H](N)C2)cnc1Cl` [Example 17, (3S)-1-(6-chloro-5-methyl-3-pyridinyl)pyrrolidinylamine dihydrochloride] has a Ki [1] of 0.03 nM and a minimal effective dose (mouse hot plate paradigm) of 6.2 µmol/kg.
`CN[C@H]1CCN(c2cccnc2)C1` [Example 9, N-methyl-N-[(3S)-1-(3-pyridinyl)pyrrolidinyl]amine dihydrochloride] gave a Ki [1] of 2 nM and a minimal effective dose (mouse hot plate paradigm) of 62 µmol/kg.
`CN[C@@H]1CCN(c2cnc(Cl)c(C)c2)C1` [Example 16, N-[(3R)-1-(6-chloro-5-methyl-3-pyridinyl)pyrrolidinyl]-N-methylamine dihydrochloride] gave a Ki [1] of 5.1 nM and a minimal effective dose (mouse hot plate paradigm) of 1.9 µmol/kg.
With `N[C@H]1CCN(c2cccnc2)C1` [Example 8, (3S)-1-(3-pyridinyl)pyrrolidinylamine 4-methylbenzenesulfonate] the Ki [1] was 0.23 nM and the minimal effective dose (mouse hot plate paradigm) was 19 µmol/kg.
In the case of `CN[C@@H]1CCN(c2cnc(Cl)c(Cl)c2)C1` [Example 22, N-[(3R)-1-(5,6-dichloro-3-pyridinyl)pyrrolidinyl]-N-methylamine hydrochloride], the Ki [1] is reported as 13 nM and the minimal effective dose (mouse hot plate paradigm) is reported as 19 µmol/kg.
For `N[C@@H]1CCCN(c2cccnc2)C1` [Example 43, (3R)-1-(3-pyridinyl)piperidinylamine bis(4-methylbenzenesulfonate)], the Ki [1] was 1.1 nM and the minimal effective dose (mouse hot plate paradigm) was 0.62 µmol/kg.
Work on `N[C@H]1CCCN(c2cccnc2)C1` [Example 41, (3S)-1-(3-pyridinyl)piperidinylamine bis(4-methylbenzenesulfonate)] yielded a Ki [1] of 0.89 nM and a minimal effective dose (mouse hot plate paradigm) of 19 µmol/kg.
Work on `N[C@@H]1CCCN(c2ccc(Cl)nc2)C1` [Example 47, (3R)-1-(6-chloro-3-pyridinyl)piperidin-3-ylamine bis(4-methylbenzenesulfonate)] yielded a Ki [1] of 0.38 nM and a minimal effective dose (mouse hot plate paradigm) of 1.9 µmol/kg.
Work on `CN[C@H]1CCN(c2ccc(Cl)nc2)C1` [Example 1, N-[(3S)-1-(6-chloro-3-pyridinyl)pyrrolidinyl]-N-methylamine hydrochloride] yielded a Ki [1] of 44 nM and a minimal effective dose (mouse hot plate paradigm) of 62 µmol/kg.
Work on `CN[C@@H]1CCN(c2ccc(Cl)nc2)C1` [Example 5, N-[(3R)-1-(6-chloro-3-pyridinyl)pyrrolidinyl]-N-methylamine hydrochloride] yielded a Ki [1] of 5.5 nM and a minimal effective dose (mouse hot plate paradigm) of 62 µmol/kg.
With `N[C@@H]1CCN(c2cnc(Cl)c(Cl)c2)C1` [Example 21, (3R)-1-(5,6-dichloro-3-pyridinyl)pyrrolidinylamine dihydrochloride] the Ki [1] was 0.13 nM and the minimal effective dose (mouse hot plate paradigm) was 6.2 µmol/kg.
With `CN[C@H]1CCCN(c2cccnc2)C1` [Example 42, N-methyl-N-[(3S)-1-(3-pyridinyl)piperidin-3-yl]amine bis(4-methylbenzenesulfonate)] the Ki [1] was 83 nM and the minimal effective dose (mouse hot plate paradigm) was 62 µmol/kg.
